This note sets out measurements from patent US20090226398A1, “ANTI-VIRAL COMPOUNDS, COMPOSITIONS, AND METHODS OF USE” (Genelabs Technologies, Inc., priority 2008, published 2009).

The test relates to HCV replication. Description: Replicon Assay (Huh-lucubineo-ET cells, luciferase readout). The test is classed as cell-based. Particulars: Hepatitis C virus; ET (Huh-lucubineo-ET) HCV replicon cell line; luciferase activity 48-72 hours after compound addition; 6 dilutions. An outline of the steps:
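Huh-lucubineo-ET cells stably carrying a firefly luciferase-ubiquitin-neo/NS3-5B ET replicon (adaptive mutations E1202G, T1280I, K1846T) were plated 24 h before compound, then treated at 5 or 50 μM or six 3-fold dilutions. Luciferase read 48-72 h later; % inhibition vs no-compound control, EC50/TC50 from Hill-equation fit.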
As to `Fc1ccc(COc2ccc(Cn3cc4nc(-c5cccc(F)c5F)nc-4cn3)cc2)cc1` [Compound 297, 2-(2,3-Difluoro-phenyl)-5-[4-(4-fluoro-benzyloxy)-benzyl]-5H-imidazo[4,5-d]pyridazine], the EC50 is 5740 nM. That is a single-digit micromolar value. The value for `Fc1cccc(-c2nc3cnn(Cc4ccc(-c5ccc(Br)c(C(F)(F)F)c5)nc4)cc-3n2)c1F` [Compound 298, 5-[6-(4-Bromo-3-trifluoromethyl-phenyl)-pyridin-3-ylmethyl]-2-(2,3-difluorophenyl)-5H-imidazo[4,5-d]pyridazine] was no less than 50000 nM; that for `Fc1cccc(-c2nc3cnn(Cc4ccc(-c5ccccn5)cc4)cc-3n2)c1F` [Compound 299, 2-(2,3-Difluoro-phenyl)-5-(4-pyridin-2-yl-benzyl)-5H-imidazo[4,5-d]pyridazine] was no less than 50000 nM; that for `Fc1cccc(-c2nc3cnn(Cc4cccc(OC(F)(F)F)c4)cc-3n2)c1F` [Compound 300, 2-(2,3-Difluoro-phenyl)-5-(3-trifluoromethoxy-benzyl)-5H-imidazo[4,5-d]pyridazine] was no less than 50000 nM. As for `Fc1cccc(-c2nc3cnn(Cc4cccc(-c5ccncc5)c4)cc-3n2)c1F` [Compound 301, 2-(2,3-Difluoro-phenyl)-5-(3-pyridin-4-yl-benzyl)-5H-imidazo[4,5-d]pyridazine], the EC50 worked out at 35000 nM.

As for `Fc1cccc(-c2nc3cnn(Cc4ccc5ncccc5c4)cc-3n2)c1F` [Compound 302, 6-[2-(2,3-Difluoro-phenyl)-imidazo[4,5-d]pyridazin-5-ylmethyl]-quinoline], the EC50 is no less than 50000 nM. `Fc1cccc(-c2nc3cnn(Cc4ccc(N5CCOCC5)cc4)cc-3n2)c1F` [Compound 303, 2-(2,3-Difluoro-phenyl)-5-(4-morpholin-4-yl-benzyl)-5H-imidazo[4,5-d]pyridazine] had an EC50 of 8530 nM. In other words, the single-digit micromolar range. For the compound `Fc1cccc(-c2nc3cnn(Cc4ccc(N5CCCCC5)cc4)cc-3n2)c1F` [Compound 304, 2-(2,3-Difluoro-phenyl)-5-(4-piperidin-1-yl-benzyl)-5H-imidazo[4,5-d]pyridazine], the EC50 amounted to 3870 nM.

The compound `CC(c1ccc(-c2ccc(C(F)(F)F)cc2C(F)(F)F)cn1)n1cc2nc(-c3cccc(F)c3F)nc-2cn1` (centres unmarked) [Compound 305, 5-{1-[5-(2,4-Bis-trifluoromethyl-phenyl)-pyridin-2-yl]-ethyl}-2-(2,3-difluoro-phenyl)-5H-imidazo[4,5-d]pyridazine] came in with an EC50 of 278 nM. The value for `COc1ccc(-c2cnc(Cn3cc4nc(-c5cccc(F)c5F)nc-4cn3)cn2)c(C(F)(F)F)c1` [Compound 306, 2-(2,3-Difluoro-phenyl)-5-[5-(4-methoxy-2-trifluoromethyl-phenyl)-pyrazin-2-ylmethyl]-5H-imidazo[4,5-d]pyridazine] was 23 nM.

Compound `Fc1cccc(-c2nc3cnn(Cc4ccc(Cl)nn4)cc-3n2)c1F` [Compound 307, 5-(6-Chloro-pyridazin-3-ylmethyl)-2-(2,3-difluoro-phenyl)-5H-imidazo[4,5-d]pyridazine] showed an EC50 of no less than 50000 nM.

The compound `Fc1cccc(-c2nc3cnn(Cc4ccc(-n5cccn5)cc4)cc-3n2)c1F` [Compound 308, 2-(2,3-Difluoro-phenyl)-5-(4-pyrazol-1-yl-benzyl)-5H-imidazo[4,5-d]pyridazine] had a 50% effective concentration (EC50) of no less than 50000 nM.

In the case of `Fc1cc(Cn2cc3nc(-c4cccc(F)c4F)nc-3cn2)ccc1Br` [Compound 309, 5-(4-Bromo-3-fluoro-benzyl)-2-(2,3-difluoro-phenyl)-5H-imidazo[4,5-d]pyridazine], the midpoint of the response, the EC50, lay at 61000 nM.

As for `COc1ccc(-c2ccc(Cn3cc4nc(-c5cccc(F)c5F)nc-4cn3)nc2[N+](=O)[O-])c(C(F)(F)F)c1` [Compound 310, 2-(2,3-Difluoro-phenyl)-5-[5-(4-methoxy-2-trifluoromethyl-phenyl)-6-nitro-pyridin-2-ylmethyl]-5H-imidazo[4,5-d]pyridazine], the response was half-maximal at 762 nM (EC50).

As for `O=[N+]([O-])c1cc(Cn2cc3nc(-c4cccc(F)c4F)nc-3cn2)ccc1Br` [Compound 311, 5-(4-Bromo-3-nitro-benzyl)-2-(2,3-difluoro-phenyl)-5H-imidazo[4,5-d]pyridazine], the midpoint of the response, the EC50, lay at 6540 nM. The value for `COC(=O)c1cc(Br)ccc1Cn1cc2nc(-c3cccc(F)c3F)nc-2cn1` [Compound 312, 5-Bromo-2-[2-(2,3-difluoro-phenyl)-imidazo[4,5-d]pyridazin-5-ylmethyl]-benzoic acid methyl ester] was no less than 50000 nM; that for `Cc1noc(-c2ccc(Cn3cc4nc(-c5cccc(F)c5F)nc-4cn3)cc2)n1` [Compound 313, 2-(2,3-Difluoro-phenyl)-5-[4-(3-methyl-[1,2,4]oxadiazol-5-yl)-benzyl]-5H-imidazo[4,5-d]pyridazine] was no less than 50000 nM.

The compound `Fc1cccc(-c2nc3cnn(Cc4ccc(Oc5ccccn5)cc4)cc-3n2)c1F` [Compound 314, 2-(2,3-Difluoro-phenyl)-5-[4-(pyridin-2-yloxy)-benzyl]-5H-imidazo[4,5-d]pyridazine] gave an EC50 of no less than 50000 nM. Regarding `CCOc1ccc(-c2ccc(Cn3cc4nc(-c5ccccc5F)nc-4cn3)nn2)c(C(F)(F)F)c1` [Compound 315, 5-[6-(4-Ethoxy-2-trifluoromethyl-phenyl)-pyridazin-3-ylmethyl]-2-(2-fluoro-phenyl)-5H-imidazo[4,5-d]pyridazine], the EC50 turned out to be 20 nM. The value for `CCCOc1ccc(-c2ccc(Cn3cc4nc(-c5ccccc5F)nc-4cn3)nn2)c(C(F)(F)F)c1` [Compound 316, 2-(2-Fluoro-phenyl)-5-[6-(4-propoxy-2-trifluoromethyl-phenyl)-pyridazin-3-ylmethyl]-5H-imidazo[4,5-d]pyridazine] was 32 nM; that for `COc1ccc(-c2ccc(Cn3cc4nc(-c5ccccc5F)nc-4cn3)nn2)c(C(F)(F)F)c1` [Compound 317, 2-(2-Fluoro-phenyl)-5-[6-(4-methoxy-2-trifluoromethyl-phenyl)-pyridazin-3-ylmethyl]-5H-imidazo[4,5-d]pyridazine] was 64 nM. As for `CC(=O)COc1ccc(-c2ccc(Cn3cc4nc(-c5cccc(F)c5F)nc-4cn3)nn2)c(C(F)(F)F)c1` [Compound 318, 1-(4-{6-[2-(2,3-Difluoro-phenyl)-imidazo[4,5-d]pyridazin-5-ylmethyl]-pyridazin-3-yl}-3-trifluoromethyl-phenoxy)-propan-2-one], the EC50 was 663 nM. Compound `CC(O)COc1ccc(-c2ccc(Cn3cc4nc(-c5cccc(F)c5F)nc-4cn3)nn2)c(C(F)(F)F)c1` (centres unmarked) [Compound 319, 1-(4-{6-[2-(2,3-Difluoro-phenyl)-imidazo[4,5-d]pyridazin-5-ylmethyl]-pyridazin-3-yl}-3-trifluoromethyl-phenoxy)-propan-2-ol] came in with an EC50 of 4520 nM. `Fc1cccc(-c2nc3cnn(Cc4ccc(-c5ccc(OCC6CCOCC6)cc5C(F)(F)F)nn4)cc-3n2)c1F` [Compound 320, 2-(2,3-Difluoro-phenyl)-5-{6-[4-(tetrahydro-pyran-4-ylmethoxy)-2-trifluoromethyl-phenyl]-pyridazin-3-ylmethyl}-5H-imidazo[4,5-d]pyridazine] showed an EC50 of 1710 nM. Compound `CC[C@H](C)COc1ccc(-c2ccc(Cn3cc4nc(-c5cccc(F)c5F)nc-4cn3)nn2)c(C(F)(F)F)c1` [Compound 321, 2-(2,3-Difluoro-phenyl)-5-{6-[4-(2-methyl-butoxy)-2-trifluoromethyl-phenyl]-pyridazin-3-ylmethyl}-5H-imidazo[4,5-d]pyridazine] registered an EC50 of 45 nM. `CCOc1ccc(-c2ccc(Cn3cc4nc(-c5ccccc5F)nc-4cn3)cn2)c(C(F)(F)F)c1` [Compound 322, 5-[6-(4-Ethoxy-2-trifluoromethyl-phenyl)-pyridin-3-ylmethyl]-2-(2-fluoro-phenyl)-5H-imidazo[4,5-d]pyridazine] showed an EC50 of 33 nM. This EC50 and that of the compound before are within 1.5-fold of each other. The value for `CCCOc1ccc(-c2ccc(Cn3cc4nc(-c5ccccc5F)nc-4cn3)cn2)c(C(F)(F)F)c1` [Compound 323, 2-(2-Fluoro-phenyl)-5-[6-(4-propoxy-2-trifluoromethyl-phenyl)-pyridin-3-ylmethyl]-5H-imidazo[4,5-d]pyridazine] was 33 nM. Regarding `COCCOc1ccc(-c2ccc(Cn3cc4nc(-c5cccc(F)c5F)nc-4cn3)nn2)c(C(F)(F)F)c1` [Compound 324, 2-(2,3-Difluoro-phenyl)-5-{6-[4-(2-methoxy-ethoxy)-2-trifluoromethyl-phenyl]-pyridazin-3-ylmethyl}-5H-imidazo[4,5-d]pyridazine], a half-maximal response (EC50) required 65 nM. Against the preceding compound, the EC50 is about 2-fold higher.

In turn, `N#CCOc1ccc(-c2ccc(Cn3cc4nc(-c5cccc(F)c5F)nc-4cn3)nn2)c(C(F)(F)F)c1` [Compound 325, (4-{6-[2-(2,3-Difluoro-phenyl)-imidazo[4,5-d]pyridazin-5-ylmethyl]-pyridazin-3-yl}-3-trifluoromethyl-phenoxy)-acetonitrile] yielded an EC50 of 107 nM. The compound `Fc1cccc(-c2nc3cnn(Cc4ccc(-c5ccc(OCC6CCOC6)cc5C(F)(F)F)nn4)cc-3n2)c1F` (centres unmarked) [Compound 326, 2-(2,3-Difluoro-phenyl)-5-{6-[4-(tetrahydro-furan-3-ylmethoxy)-2-trifluoromethyl-phenyl]-pyridazin-3-ylmethyl}-5H-imidazo[4,5-d]pyridazine] returned an EC50 of 1680 nM.

For `Fc1cccc(-c2nc3cnn(Cc4ccc(-c5ccc(OCC6CC6)cc5C(F)(F)F)nn4)cc-3n2)c1F` [Compound 327, 5-[6-(4-Cyclopropylmethoxy-2-trifluoromethyl-phenyl)-pyridazin-3-ylmethyl]-2-(2,3-difluoro-phenyl)-5H-imidazo[4,5-d]pyridazine], the midpoint of the response, the EC50, lay at 54 nM. Turning to `CC(C)COc1ccc(-c2ccc(Cn3cc4nc(-c5cccc(F)c5F)nc-4cn3)nn2)c(C(F)(F)F)c1` [Compound 328, 2-(2,3-Difluoro-phenyl)-5-[6-(4-isobutoxy-2-trifluoromethyl-phenyl)-pyridazin-3-ylmethyl]-5H-imidazo[4,5-d]pyridazine], the midpoint of the response, the EC50, lay at 35 nM.
